# Source: patent publication US20250257062A1, “GLP-1R Agonist and Therapeutic Method Thereof” (Ascletis Pharma (China) Co., Limited, priority 2023, published 2025)
# Columns and labels:
# [1] = Single-dose oral administration pharmacokinetic study in SD rats; type: in vivo; details: Sprague-Dawley, rat, 5 mg/kg, plasma; for Cmax: male SD rats; for AUC(0-t): male, po, exposure over 0-24 hours
# Procedure: Single-dose oral administration pharmacokinetic (PK) studies in Sprague-Dawley (SD) rats Pharmacokinetic (PK) studies after a single-dose oral administration for compounds.
# Protocol: Animals: Male Sprague-Dawley (SD) rats; Solvent: Solutol: PEG400: Tween80: Saline=10:40:2:48 (v/v/v/v); Dose: 5 mg/kg; Dosing concentration: 0.5 mg/mL in the solvent; Dosing volume: 10 mL/kg. Sample Collection: At each time point, approximately 0.15 mL of blood was drawn from the jugular vein sinus, and the collected whole blood was placed in an anticoagulant tube containing EDTA-K2. After collecting blood samples, they were processed with protein precipitation and then analyzed by LC-MS/MS.
# [2] = molecular target: hGLP-1R (Homo sapiens (Human), UniProt P43220); experiment: hGLP-1R cAMP assay (agonist cAMP stimulation, Flp-In-293-GLP1R cells); type: cell-based; details: 30 min at 37° C.
# Sequence of hGLP-1R (P43220 24-463): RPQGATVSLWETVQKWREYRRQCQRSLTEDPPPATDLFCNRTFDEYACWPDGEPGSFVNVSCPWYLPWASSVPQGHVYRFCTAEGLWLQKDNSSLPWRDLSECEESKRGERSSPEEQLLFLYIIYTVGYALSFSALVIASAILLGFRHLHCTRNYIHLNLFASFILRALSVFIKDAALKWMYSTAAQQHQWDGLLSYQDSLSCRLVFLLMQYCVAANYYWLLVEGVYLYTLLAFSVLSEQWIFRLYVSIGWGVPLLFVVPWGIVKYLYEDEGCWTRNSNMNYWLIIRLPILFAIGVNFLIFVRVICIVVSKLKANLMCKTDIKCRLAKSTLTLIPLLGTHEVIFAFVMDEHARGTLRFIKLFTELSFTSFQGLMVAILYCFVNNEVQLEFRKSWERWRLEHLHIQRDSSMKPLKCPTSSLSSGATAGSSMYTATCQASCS
# Procedure: hGLP-1R cAMP Assay • 1. Cell line and reagent preparation • 1) Cell line: Flp-In-293-GLP1R • 2) Medium: DMEM+10% FBS+1×Penicillin-Streptomycin+200 μg/mL HB • 3) Test buffer: 1×HBSS+20 mM HEPES+0.1% BSA+500 μM IBMX • 2. Agonist test • a) Flpin-293-GLP1R cells were incubated in a 384-well assay plate (6007680-50, PE) using complete medium with 2,000 cells per well. • b) Prepared a 4× […] working solution with assay buffer. • c) Added 5 μL of 4× Compound Working Solution to the cell plate and incubated at 37° C. for 30 minutes. • d) Diluted Eu-cAMP tracer (1/50) with lysis buffer and added 10 μl/well to the assay plate. • e) Diluted Ulight-anti-cAMP (1/150) with lysis buffer and added 10 μl/well to the assay plate. • f) Incubated at constant temperature for 1 hour. • g) Read the plate on Envision 2105 plate reader at […]. • 3. Data Analysis • 3.1 The formula for calculating % Activity was as follows
# [formula] • 3.2 Calculate EC50 and plot the effect-dose curve for cmpds:
# [formula] • X: logarithm of agonist concentration; Y: percentage activity.
Cmax [1] [ng/mL],AUC(0-t) [1] [ng·h/mL],EC50 [2] [nM],Compound
5610,71200,0.02,C[C@H]1c2c(nn(-c3ccc(F)c(C4CC4)c3)c2-n2ccn(-c3ccc4c(cnn4C4CC4)c3F)c2=O)CCN1C(=O)c1cc2cc(C3CCOCC3)ccc2n1[C@@]1(c2noc(=O)[nH]2)C[C@@H]1C [Compound 33]
3210,29600,0.015,C[C@H]1c2c(nn(-c3ccc(F)c4c3CCC4)c2-n2ccn(-c3ccc4c(cnn4C4CC4)c3F)c2=O)CCN1C(=O)c1cc2cc(C3CCOCC3)ccc2n1[C@@]1(c2noc(=O)[nH]2)C[C@@H]1C [Compound 45]
,,0.028,C[C@H]1c2c(nn(-c3ccc(F)c(C4CC4)c3)c2-n2ccn(-c3ccc(CP(C)(C)=O)cc3)c2=O)CCN1C(=O)c1cc2cc(C3CCOCC3)ccc2n1[C@@]1(c2noc(=O)[nH]2)C[C@@H]1C [Compound 51]
